Data from patent publication US12435032B2, “L-γ-methyleneglutamine compounds and methods of use” (University of Mississippi, priority 2019, dated 2025).
“Also recorded” adds a separate entry of the source. Where two headings read alike, the source gives them in different places.

What was measured:
[1] = tested on: MCF-10A non-cancerous breast cells; assay: Growth inhibition of MCF-10A cells (negative control line); assay type: cell-based; conditions: Homo sapiens, dose-response 0.32-320 μM
Description: (§1) Olaparib was chosen because it is one of a few FDA-approved chemotherapeutics for triple-negative breast cancer.
(§2) Cells were incubated for 15 minutes at 37° C.

[2] = tested on: SK-BR-3 (ER−/PR−/HER2+) breast cancer cells; assay: Growth inhibition of SK-BR-3 cells; assay type: cell-based; conditions: Homo sapiens, dose-response 0.32-320 μM
Description: as §1, §2

[3] = tested on: MCF-7 (ER+/PR+/HER2−) breast cancer cells; assay: Growth inhibition of MCF-7 cells (Hoechst 33342 fluorescence vs non-treated wells); assay type: cell-based; conditions: dose-response 0.32-320 μM
Description: as §1, §2

[4] = tested on: MCF-7 breast cancer cells; assay: Cytotoxicity (cell death, propidium iodide) in MCF-7 cells; assay type: cell-based; conditions: for EC50: Homo sapiens, MCF7
[5] = tested on: triple-negative MDA-MB-231 breast cancer cells; assay: cells; conditions: Homo sapiens
[6] = Cytotoxicity (cell death, propidium iodide) in MCF-10A cells; assay type: cell-based; conditions: human, MCF-10A non-cancerous breast cells
Description: To assess the selectivity of cytotoxicity for cancer cells, all drugs and compounds were screened against MCF-10A, non-cancerous breast cells.
as §2

[7] = tested on: SK-BR-3 breast cancer cells; assay: Cytotoxicity (cell death, propidium iodide) in SK-BR-3 cells; assay type: cell-based; conditions: for EC50: Homo sapiens, dose-response 0.32-320 μM
[8] = tested on: triple-negative MDA-MB-231 breast cancer cells; assay: Growth inhibition of MDA-MB-231 cells; assay type: cell-based; conditions: for IC50: Homo sapiens; for IC50 / Growth Inhibition IC50: dose-response 0.32-320 μM
Description: as §1, §2

[9] = Homo sapiens, MCF7, 24 h, MCF-7, 24 h exposure
[10] = Homo sapiens, MCF7, 72 h, MCF-7, 72 h exposure
[11] = MCF-7, 24 h exposure, dose-response 0.32-320 μM, read-out: Cytotoxicity EC50
[12] = MCF-7, 72 h exposure, dose-response 0.32-320 μM, read-out: Cytotoxicity EC50
[13] = MDA-MB-231, 24 h, read-out: Cytotoxicity EC50
[14] = MDA-MB-231, 72 h, read-out: Cytotoxicity EC50
[15] = SK-BR-3, 72 h / after the first 24 h
[16] = MDA-MB-231, read-out: cytotoxic EC50

| Structure (SMILES) | IC50 ([1]; 24 h exposure) [µM] | IC50 ([1]; 72 h exposure) [µM] | IC50 ([2]; SK-BR-3, 24 h exposure) [µM] | IC50 ([2]; SK-BR-3, 72 h exposure) [µM] | IC50 [3, 9] [µM] | IC50 [3, 10] [µM] | EC50 [4, 11] [µM] | EC50 [4, 12] [µM] | EC50 [5, 13] [µM] | EC50 [5, 14] [µM] | EC50 at 24 h ([6]; 24 h exposure) [µM] | EC50 at 24 h ([6]; head prints 24 h) [µM] | EC50 ([7]; SK-BR-3, 24 h exposure) [µM] | EC50 ([7]; SK-BR-3, 72 h exposure) [µM] | cytotoxicity EC50 [7, 15] | IC50 ([8]; MDA-MB-231, 24 h exposure) [µM] | IC50 ([8]; MDA-MB-231, 72 h exposure) [µM] | Growth Inhibition IC50 ([8]; MDA-MB-231, 24 h exposure) | Growth Inhibition IC50 ([8]; MDA-MB-231, 72 h exposure) | EC50 for MCF-7 cytotoxicity ([4]; MCF-7, 72 h exposure) | other results |
| --- | --- | --- | --- | --- | --- | --- | --- | --- | --- | --- | --- | --- | --- | --- | --- | --- | --- | --- | --- | --- | --- |
| C=C(C[C@H](N)C(=O)O)C(=O)Nc1ccc(Cl)cc1 [Compound 10, (S)-2-amino-4-((4-chlorophenyl)carbamoyl) pent-4-enoic acid] | > 1000 | > 1000 | 78.7 | 4 | 397 | 171 | 205 | 93.2 | > 1000 | > 1000 | > 1000 | > 1000 | 262 | > 1000 | much reduced toxicity | 867 | 712 | poorer potency than both tamoxifen or olaparib | poorer potency than olaparib | – | – |
| C=C(C[C@H](N)C(=O)O)C(=O)NCc1ccc([N+](=O)[O-])cc1 [Compound 6, (S)-2-amino-4-((4-nitrobenzyl)carbamoyl) pent-4-enoic acid] | > 1000 | > 1000 | 12.8 | 3.2 | 457 | 534 | 485 | 20.4 | 150 | 270 | > 1000 | > 1000 | 0.3 | 0.4 | – | 216 | 368 | potency that was commensurate to tamoxifen | longer-term performance commensurate to olaparib; also recorded: as efficacious as olaparib | – | cytotoxicity EC50 ([7]; SK-BR-3, at 24 or 72 h): commensurate EC50's at 24 or 72 h |
| C=C(C[C@H](N)C(=O)O)C(=O)N1CCCCC1 [Compound 8, (S)-2-amino-4-(piperidine-1-carbonyl) pent-4-enoic acid] | > 1000 | > 1000 | 133 | 0.6 | 434 | 606 | 197 | 198 | > 1000 | > 1000 | > 1000 | > 1000 | 0.1 | > 1000 | much reduced toxicity | 685 | 813 | poorer potency than both tamoxifen or olaparib | poorer potency than olaparib | did not change | Growth Inhibition IC50 ([3]; MCF-7, 72 h exposure): significantly less potent than tamoxifen |
| C=C(C[C@H](N)C(=O)O)C(=O)NC1CC1 [Compound 7, (S)-2-amino-4-(cyclopropylcarbamoyl) pent-4-enoic acid] | > 1000 | > 1000 | 314 | 0.6 | 231 | 416 | 64.1 | 508 | 933 | > 1000 | > 1000 | > 1000 | 272 | > 1000 | much reduced toxicity | 649 | 922 | – | poorer potency than olaparib | – | Growth Inhibition IC50 ([3]; MCF-7, 72 h exposure): significantly less potent than tamoxifen; EC50 ([4]; MCF-7, 24 h exposure, read-out: EC50 for cytotoxicity): 64 µM |
| O=C(c1cc(Cc2n[nH]c(=O)c3ccccc23)ccc1F)N1CCN(C(=O)C2CC2)CC1 [Olaparib, reference compound] | > 1000 | > 1000 | 1.6 | 1.1 | > 1000 | – | > 1000 | 26.5 | 61.2 | 97.1 | 511 | > 1000 | > 1000 | 0.1 | – | 161 | 154 | – | – | micromolar EC50 | IC50 ([3]; MCF-7, 72 h exposure): 108 µM; EC50 for cytotoxicity ([4]; MCF-7, 24 h exposure): neither tamoxifen nor olaparib were cytotoxic; EC50 [5, 16]: ≤ 100 µM; EC50 at 24 h ([6]; within the first 24 h): 268 to 511 µM; cytotoxicity ([7]; SK-BR-3, 24 h exposure): neither tamoxifen nor olaparib were cytotoxic |
| C=C(C[C@H](N)C(=O)O)C(=O)Nc1ccc(F)cc1 [Compound 9, (S)-2-amino-4-((4-fluorophenyl)carbamoyl) pent-4-enoic acid] | > 1000 | > 1000 | 11.4 | 4.7 | 414 | 76 | 161 | 2.3 | > 1000 | 450 | > 1000 | > 1000 | 0.2 | 0.1 | – | 652 | 419 | – | – | significantly lower than tamoxifen | cytotoxicity EC50 ([7]; SK-BR-3, at 24 or 72 h): commensurate EC50's at 24 or 72 h; growth inhibition potency compared with olaparib ([8]; MDA-MB-231, throughout testing (24 h and 72 h)): equipotent to olaparib |
| C=C(C[C@H](N)C(=O)O)C(N)=O [Compound 1, (S)-2-amino-4-carbamoylpent-4-enoic acid] | > 1000 | > 1000 | 7.9 | 11.3 | 459 | 609 | 152 | 3 | 8.9 | 320 | > 1000 | > 1000 | 0.2 | 2 | – | 141 | 585 | potency that was commensurate to tamoxifen | longer-term performance commensurate to olaparib; also recorded: as efficacious as olaparib | significantly lower than tamoxifen | cytotoxicity EC50 ([7]; SK-BR-3, at 24 or 72 h): commensurate EC50's at 24 or 72 h |
| CC/C(=C(\c1ccccc1)c1ccc(OCCN(C)C)cc1)c1ccccc1 [Tamoxifen, reference compound] | – | – | – | – | – | – | > 1000 | – | 26 | 30.9 | 268 | > 1000 | > 1000 | 0.3 | – | – | – | – | – | micromolar EC50 | EC50 for cytotoxicity ([4]; MCF-7, 24 h exposure): neither tamoxifen nor olaparib were cytotoxic; EC50 [5, 16]: ≤ 100 µM; EC50 at 24 h ([6]; within the first 24 h): 268 to 511 µM; cytotoxicity ([7]; SK-BR-3, 24 h exposure): neither tamoxifen nor olaparib were cytotoxic |
